# Results taken from patent publication US20130150346A1, “Use of FAAH Inhibitors for Treating Parkinson's Disease and Restless Legs Syndrome” (Ironwood Pharmaceutical, Inc., priority 2010, published 2013).
# Tests used:
# FAAH = experiment: Plasma FAAH substrate levels (AEA, OEA, PEA) by LC-MS/MS in MPTP-lesioned marmosets treated with URB597; type: in vivo, common marmosets (Callithrix jacchus)
# Method: Six common marmosets (Callithrix jacchus; female; weight, 350-500 g (Harlan, Madison, Wis., USA)) were kept under conditions of controlled temperature (25±2° C.) and a 12-hour light/dark cycle (lights on 6:30 a.m.). Animals were group housed and had access to food, fresh-fruit supplements and water ad libitum and their home cage environment was enriched with primate toys, perches and auditory stimuli. Prior to start of studies, animals were acclimatized to handling, blood collection and administration of treatments (oral syringe feeding and subcutaneous injection) as well as transfer to observation cages for assessment of behavior. A parkinsonian syndrome was induced by once-daily subcutaneous administration of MPTP hydrochloride (Sigma, Canada; 2 mg/kg base concentration in 0.9% saline) for 5 consecutive days. Following this, animals were allowed to recover for 12 weeks to allow parkinsonian symptoms to develop and stabilize. […] Treatment-related complications including dyskinesia and psychosis-like behaviors were evoked by twice-daily treatment with L-DOPA p.o. (as Prolopa®, Roche Canada, Ontario, equivalent to 15 mg/kg L-DOPA and 3.5 mg/kg benserazide) for a minimum of 30 days. […] Disord. 21:839-846; Visanji et al. (2008) Mov. Disord. 23:1922-1925; Visanji et al (2009) Neurobiol Dis. 35: 184-192]. After this time, the animals were used in several studies to evaluate potential anti-parkinsonian and anti-dyskinetic agents. A minimum period of two weeks was allowed between completing any prior study and commencing this study, a period in excess of ten half-lives since administration of any previously employed experimental drug. Throughout the course of the study, on days not requiring plasma sampling or behavioral observations, animals were treated once daily with oral L-DOPA therapy, given at 10:00 a.m. to maintain stable levels of complications. Marmosets treated with MPTP as described in this example are referred to as MPTP-lesioned marmosets.
# MPTP hydrochloride (Sigma, Canada) was dissolved in 0.9% NaCl sterile solution to a concentration of 0.2 mg/ml (freebase) and administered at 1 ml/kg. Maintenance L-DOPA, administered as Prolopa® capsules (Roche, Mississauga, ON, Canada) containing 50 mg L-DOPA and 12.5 mg benserazide (freebase) was dissolved in Gatorade sports beverage (The Gatorade Company, Chicago, Ill.) prior to oral administration by syringe at a volume of 10 ml/kg. On days of behavioral assessment, L-DOPA (20 mg/kg, freebase) was prepared from the methyl ester form (Sigma, Canada) in combination with benserazide hydrochloride (5 mg/kg, freebase, Sigma, Canada) dissolved in 0.9% sterile saline containing 0.1% ascorbate (Sigma, Canada) and 0.05% absolute ethanol. URB597 (Cayman Chemical, Ann Arbor, Mich.) was formulated in a vehicle containing 50% corn oil (Professional Compounding Centers of America (PCCA), Houston, Tex.) and 50% nutritional drink Ensure™ (Abbott Nutrition, Chicago, Ill.) to make the suspension palatable for marmoset oral dosing. Requisite amounts of URB597 were weighed into sterile 50 ml polypropylene tubes (for the 3, 10, 30 and 60 mg/kg doses, 12, 40, 120 and 240 mg were weighed respectively). Then, 10 ml Corn oil was added and mixed until homogenous. Next, 10 ml Ensure™ was added and the mixture mixed gently at first, vortexed and finally sonicated (Ultrasonic Dismembrator, Fisher Scientific model 100, ⅛″) on a medium setting for 30 sec to ensure homogeneity of the suspension. URB597 or vehicle was dosed orally at a volume of 5 ml/kg body weight.
# The effect of oral treatment of MPTP-lesioned marmosets with either vehicle or URB597 (3, 10, 30 or 60 mg/kg) on plasma levels of specific endogenous FAAH substrates was assessed. Levels of the endocannabinoid AEA, in addition to the non-cannabinoid fatty acid amides N-palmitoyl-ethanolamide (PEA) and N-oleoyl-ethanolamide (OEA), were measured by LC-MS/MS assays (described below).
# [1] = Plasma L-DOPA levels by LC-MS/MS in MPTP-lesioned marmosets; type: in vivo, common marmosets (Callithrix jacchus); conditions: URB597 10 mg/kg p.o., 2 h post L-DOPA, 4 h post URB597, p>0.05, paired t-test
# Method: Six common marmosets (Callithrix jacchus; female; weight, 350-500 g (Harlan, Madison, Wis., USA)) were kept under conditions of controlled temperature (25±2° C.) and a 12-hour light/dark cycle (lights on 6:30 a.m.). Animals were group housed and had access to food, fresh-fruit supplements and water ad libitum and their home cage environment was enriched with primate toys, perches and auditory stimuli. Prior to start of studies, animals were acclimatized to handling, blood collection and administration of treatments (oral syringe feeding and subcutaneous injection) as well as transfer to observation cages for assessment of behavior. A parkinsonian syndrome was induced by once-daily subcutaneous administration of MPTP hydrochloride (Sigma, Canada; 2 mg/kg base concentration in 0.9% saline) for 5 consecutive days. Following this, animals were allowed to recover for 12 weeks to allow parkinsonian symptoms to develop and stabilize. […] Treatment-related complications including dyskinesia and psychosis-like behaviors were evoked by twice-daily treatment with L-DOPA p.o. (as Prolopa®, Roche Canada, Ontario, equivalent to 15 mg/kg L-DOPA and 3.5 mg/kg benserazide) for a minimum of 30 days. […]
# The effect of oral treatment with either vehicle or URB597 (10 mg/kg) on plasma levels of L-DOPA was assessed at the beginning of the period of peak L-DOPA effect, i.e., 2 h after L-DOPA administration. […]
# [2] = URB597 10 mg/kg p.o. (two doses), four hours after oral administration, mean±SEM, n=6
# [3] = mean of the 4 doses studied (3, 10, 30, 60 mg/kg p.o.) ±SEM
smiles,measurement,setting,value
NC(=O)c1cccc(-c2cccc(OC(=O)NC3CCCCC3)c2)c1 [URB597],mean plasma level of AEA,FAAH; [2],5.0 ± 0.45 ng/mL
same,mean plasma level of OEA,FAAH; [2],7.7 ± 0.78 ng/mL
same,mean plasma level of PEA,FAAH; [2],7.0 ± 0.27 ng/mL
same,FAAH inhibition suggested by fatty acid amide elevations (no dose response),FAAH; all four doses 3 mg/kg to 60 mg/kg p.o.,complete inhibition of FAAH at all dose levels studied
same,mean fold change of plasma AEA compared to vehicle treatment,FAAH; [3],10.3±0.3 fold
same,mean fold change of plasma OEA compared to vehicle treatment,FAAH; [3],7.8±0.2 fold
same,mean fold change of plasma PEA compared to vehicle treatment,FAAH; [3],1.8±0.1 fold
same,effect of URB597 on plasma L-DOPA levels,[1],did not alter
